From ChEMBL document CHEMBL1201862, “PubChem BioAssay data set” (2004)
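Exposure lasted 48 hours, with cells grown in 96-well plates and compounds tested at five concentrations. GI50: concentration for 50% inhibition of growth.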 The source made the active and inactive calls. Rule as the data show it: active = GI50 up to about 1.1 µM and inactive = higher.

Assays:
Assay in all cases: growth of human tumour cells (NCI), 48 h
NCI-H522 = test system: NCI-H522
RPMI-8226 = test system: RPMI-8226
SR = test system: SR
M14 = test system: M14
SF-539 = test system: SF-539
M19-MEL = test system: M19-MEL
OVCAR-3 = test system: OVCAR-3
KM-20L2 = test system: KM-20L2
Malme-3M = test system: Malme-3M
Hs-578T = test system: Hs-578T
MDA-MB-435 = test system: MDA-MB-435
A498 = test system: A498
PC-3 = test system: PC-3
SK-OV-3 = test system: SK-OV-3
T47D = test system: T47D
MDA-MB-231 = test system: MDA-MB-231
HOP-92 = test system: HOP-92
CCRF-CEM = test system: CCRF-CEM
MCF7 = test system: MCF7

Compound	GI50 (NCI-H522)	GI50 (RPMI-8226)	GI50 (SR)	GI50 (M14)	GI50 (SF-539)	GI50 (M19-MEL)	GI50 (OVCAR-3)	GI50 (KM-20L2)	GI50 (Malme-3M)	GI50 (Hs-578T)	GI50 (MDA-MB-435)	GI50 (A498)	GI50 (PC-3)	GI50 (SK-OV-3)	GI50 (T47D)	GI50 (MDA-MB-231)	GI50 (HOP-92)	GI50 (CCRF-CEM)	GI50 (MCF7)
CCCCCCCCCCCCCC(=O)OC1C(O)C(CO)OC(OC)C1NC(=O)N(CCCl)N=O (centres undefined)	72.9 µM (inactive)	30.8 µM (inactive)	23.2 µM (inactive)	> 100 µM (inactive)	16.4 µM (inactive)	> 100 µM (inactive)	> 100 µM (inactive)	> 100 µM (inactive)	> 100 µM (inactive)										
COc1cc(/C=C2\CCC(C)/C(=C\c3cc(OC)c(OC)c(OC)c3)C2=O)cc(OC)c1OC (centres undefined)		0.286 µM (active)		1.96 µM (inactive)						8.81 µM (inactive)	3.03 µM (inactive)	1.76 µM (inactive)	2.7 µM (inactive)	10.5 µM (inactive)	8.95 µM (inactive)	8.41 µM (inactive)	> 100 µM (inactive)	1.29 µM (inactive)	2.89 µM (inactive)
CNC(=S)Nc1sc2c(c1C#N)CCCC2	> 75 µM (inactive)	> 75 µM (inactive)	> 75 µM (inactive)				> 75 µM (inactive)		> 75 µM (inactive)	> 75 µM (inactive)	> 75 µM (inactive)	> 75 µM (inactive)	> 75 µM (inactive)		> 75 µM (inactive)	> 75 µM (inactive)			> 75 µM (inactive)
CCCCN(CCCC)CC(=O)c1ccc2cc(Cl)c3ccccc3c2c1	16.4 µM (inactive)	7.98 µM (inactive)	16.1 µM (inactive)	76 µM (inactive)	42.6 µM (inactive)		51.4 µM (inactive)		37.6 µM (inactive)	35.7 µM (inactive)	30.4 µM (inactive)	20.7 µM (inactive)	32 µM (inactive)	31 µM (inactive)	17.7 µM (inactive)	31.4 µM (inactive)	33.5 µM (inactive)	> 100 µM (inactive)	30.1 µM (inactive)
CN1CN(c2ccccc2)C2(CCNCC2)C1=O	> 100 µM (inactive)	> 100 µM (inactive)	> 100 µM (inactive)	> 100 µM (inactive)	> 100 µM (inactive)		> 100 µM (inactive)		> 100 µM (inactive)	> 100 µM (inactive)	> 100 µM (inactive)	> 100 µM (inactive)	> 100 µM (inactive)	> 100 µM (inactive)	> 100 µM (inactive)	> 100 µM (inactive)	> 100 µM (inactive)	> 100 µM (inactive)	> 100 µM (inactive)
Cc1cc2c(cc1C)[n+]([O-])c(C#N)c(Cl)[n+]2[O-]	11 µM (inactive)	12.3 µM (inactive)	3.82 µM (inactive)		14.3 µM (inactive)		7.78 µM (inactive)		12.9 µM (inactive)	15.9 µM (inactive)	21 µM (inactive)	19.7 µM (inactive)	13.2 µM (inactive)	16.4 µM (inactive)		19.1 µM (inactive)	16.2 µM (inactive)	4.92 µM (inactive)	12.9 µM (inactive)
C1CSCCSCSCCS1	> 100 µM (inactive)			> 100 µM (inactive)	> 100 µM (inactive)		> 100 µM (inactive)			> 100 µM (inactive)	> 100 µM (inactive)	> 100 µM (inactive)	> 100 µM (inactive)	> 100 µM (inactive)	> 100 µM (inactive)	> 100 µM (inactive)	> 100 µM (inactive)		> 100 µM (inactive)
Cn1c(=O)c(-c2ccccc2)c(N=[N+]=[N-])c2ccccc21	26 µM (inactive)		25.3 µM (inactive)	63.2 µM (inactive)	54 µM (inactive)		44.2 µM (inactive)		30.9 µM (inactive)	37.7 µM (inactive)	45.4 µM (inactive)	42.6 µM (inactive)	22.3 µM (inactive)	> 100 µM (inactive)	19.8 µM (inactive)	49.5 µM (inactive)	17.9 µM (inactive)	30.8 µM (inactive)	54.3 µM (inactive)
C[C@@H]1CC[C@H]2[C@H]1[C@H]1[C@@H](CC[C@]2(C)N=C=S)C1(C)C		17.2 µM (inactive)	22.1 µM (inactive)	18.5 µM (inactive)			19.3 µM (inactive)		22.5 µM (inactive)	48.1 µM (inactive)	24.8 µM (inactive)		26.7 µM (inactive)	49.3 µM (inactive)	45.5 µM (inactive)	30.1 µM (inactive)	30.7 µM (inactive)	13.3 µM (inactive)	17.5 µM (inactive)
C=CCOC(=O)Cn1ccc(=O)[nH]c1=O		> 100 µM (inactive)	> 100 µM (inactive)	> 100 µM (inactive)	> 100 µM (inactive)				> 100 µM (inactive)	> 100 µM (inactive)		> 100 µM (inactive)	> 100 µM (inactive)	> 100 µM (inactive)	> 100 µM (inactive)	> 100 µM (inactive)		> 100 µM (inactive)	> 100 µM (inactive)
COc1ccc(C(=O)CC(c2ccccc2)[C@H]2C(c3ccc(OC)cc3)=Nc3c(nc(SC)n(C)c3=O)NC2c2ccccc2)cc1 (some centres undefined)	> 100 µM (inactive)	> 100 µM (inactive)	> 100 µM (inactive)	> 100 µM (inactive)	> 100 µM (inactive)		> 100 µM (inactive)			> 100 µM (inactive)	> 100 µM (inactive)	> 100 µM (inactive)	> 100 µM (inactive)	> 100 µM (inactive)	> 100 µM (inactive)	> 100 µM (inactive)	> 100 µM (inactive)	> 100 µM (inactive)	> 100 µM (inactive)
N#Cc1ccc(C2Oc3ccc(Cl)cc3C=C2[N+](=O)[O-])cc1 (centres undefined)	1.34 µM (inactive)	0.334 µM (active)	0.157 µM (active)	1.36 µM (inactive)	1.87 µM (inactive)		1.63 µM (inactive)		2.11 µM (inactive)	6.32 µM (inactive)	1.73 µM (inactive)	2.38 µM (inactive)	1.38 µM (inactive)	2.27 µM (inactive)	0.34 µM (active)	1.8 µM (inactive)	1.39 µM (inactive)	0.219 µM (active)	1.4 µM (inactive)
CCOC(=O)N1C=NC23C(c4ccccc4)C(c4ccccc4)C12C(=O)N(C)C(=O)N3C (centres undefined)	> 100 µM (inactive)	44.2 µM (inactive)	> 100 µM (inactive)	> 100 µM (inactive)		> 100 µM (inactive)	> 100 µM (inactive)	> 100 µM (inactive)	> 100 µM (inactive)			> 100 µM (inactive)		> 100 µM (inactive)			> 100 µM (inactive)	> 100 µM (inactive)	
SC1=Nc2ccccc2-c2nc(-c3ccccc3)cc(-c3ccc(Br)cc3)c2C1	1.68 µM (inactive)	15.8 µM (inactive)		2.4 µM (inactive)	3.27 µM (inactive)		2.29 µM (inactive)		2.59 µM (inactive)	0.891 µM (active)	6.73 µM (inactive)	1.01 µM (active)	6.44 µM (inactive)	0.897 µM (active)	1.48 µM (inactive)	1.44 µM (inactive)	1.95 µM (inactive)	1.88 µM (inactive)	4.59 µM (inactive)
